Reference: US20250288603A1, “ANIMAL FOOD COMPOSITION COMPRISING A SOURCE OF GLYCYRRHIZIN” (MARS, INCORPORATED, priority 2022, published 2025)

Tests used:
[1] = dogs; cited from earlier work
healthy adult dogs [2] = test: Glycyrrhizin safety study: fractional potassium excretion; assay type: in vivo, dog; conditions: for effect on fractional potassium excretion, D0 versus any later time point: adult dogs, 0.2, 0.4 and 0.6 mg/kg Bwt/day, 28 days each; for overall mean fractional potassium excretion: dogs
Source text: (§1) Dogs. Sixteen privately owned healthy adult dogs, both male and female, were included in the study. In particular, the dogs were Beagles, Brittany spaniels or Dachshunds weighing between 5 and 21 kg. Twelve dogs were females and four dogs were males.
(§2) Glycyrrhizin Source. The glycyrrhizin source was provided by a licorice root extract comprising 12% glycyrrhizin formulated in gelatin capsules. The licorice root extract was commercially obtained from Naturex (Avignon, France), product reference DAB40178.
(§3) Commercially available pharmaceutical grade gelatin capsules (Capsuline, Dania Beach, Florida, US) were filled to capacity with precisely weight mixtures of licorice powder and 100% pure maltodextrin powder (Bulk Powders, Colchester, UK). The weighed combinations of licorice and maltodextrin powders were prepared in such a way that, when mixed together and placed in the capsules, provided the dogs with daily glycyrrhizin doses according to the schedule of 0.2 mg/kg Bwt/day, followed by 0.4 mg/kg Bwt/day, followed by 0.6 mg/kg Bwt/day.
(§4) Dosage. The doses to be administered to each dog were calculated based on five different bodyweight groups. Separate capsules were weighed out for each group. The licorice root extract was mixed with maltodextrin order to deliver the same volume of overall powdered material to each dog. Capsules were fed to the dogs inside a meatball of wet petfood.
(§5) In total, three different doses of glycyrrhizin were fed to the dogs, in each case for 28 days. These dosages were 0.2 mg/kg of Bwt/day, 0.4 mg/kg of Bwt/day, and 0.6 mg/kg of Bwt/day.
(§6) Each of the dogs underwent the following protocol cycle, which was repeated for each of the tested concentrations. The first cycle was dosed at 0.2 mg of glycyrrhizin (Gly)/kg Bwt/day. The second cycle was dosed at 0.4 mg Gly/kg Bwt/day. The third cycle was dosed at 0.6 mg Gly/kg Bwt/day.
(§7) Days 2, 4, 7, 14, 21 and 28: Blood pressure and potassium, sodium and calcium, creatinine and aldosterone concentrations in the blood and urine measurements were taken.
Small volume blood samples (4 ml) were taken on the days indicated in the protocol description above in order to determine blood potassium, sodium and calcium, creatinine and aldosterone concentration. Free catch urine (minimum 3 ml) was conducted on each day as indicated above in order to determine concentrations of urinary potassium, sodium and calcium. Urinary creatinine concentrations were also measured so that Fractional Excretion Rate (FER) for sodium, potassium and calcium could be calculated.
FER is calculated according to the equation: […]
Statistics: A linear mixed model was used for assessing the effect of Diet (Glycyrrhizin dose). Animal was modelled as random term. Tukey HSD was used for alpha correction for multiple comparisons. Level of significance was set at 5% for two-sided test.
Fractional Potassium Excretion. The results are expressed in percentage of the potassium excreted in the urine as compared to the amount of potassium filtered and retained by the kidneys.

healthy adult dogs [3] = test: Glycyrrhizin safety study: systolic blood pressure (oscillometric method); assay type: in vivo, dog; conditions: for effect on blood pressure, D0 versus any later time point: adult dogs, 0.2, 0.4 and 0.6 mg/kg Bwt/day, 28 days each; for overall mean systolic blood pressure: dogs
Source text: as §1, §2, §3, §4, §5, §6
Day 1: Baseline measurements were taken: blood pressure and potassium, sodium and calcium, creatinine and aldosterone concentrations in the blood and urine.
Day 0: Dosing of licorice began (the concentration of glycyrrhizin is adapted according to the first, second or third cycle of the protocol, as indicated above). One dose was provided to each dog per day, with their morning meal.
Days 1-27: One dose was provided to each dog per day, with their morning meal.
as §7
Day 28: Washout began and the dogs returned to their maintenance diet alone, i.e., no more licorice was fed to them. The washout period lasted two weeks. At days 34 and 41 blood pressure and potassium, sodium and calcium, creatinine and aldosterone concentrations in the blood and urine measurements were taken again.
Protocol Details. The licorice root extract was dosed according to the given glycyrrhizin (Gly) concentrations for each cycle of the protocol in sequence: 0.2 mg/kg Bwt/day, 0.4 mg/kg Bwt/day, and 0.6 mg/kg Bwt/day.
Blood pressure was measured for each animal on multiple occasions, the first reading being discarded. BP was measured via the Oscillometric method. Each measurement, if it was shown that a dog's average blood pressure has risen to a potentially deleterious level (normally >160 mmgHg), could result in removal of a dog from the study (temporarily or permanently), according to veterinarian's discretion. All dogs were habituated to the Oscillometic device and the process of BP measurement before the start of the study. If there was evidence of stress for any dog before or during the BP procedure, the procedure for that dog was stopped and restarted when the dog was calmed again. Where necessary a dog could be given interim intensive habituation. […] Typical blood pressure ranges for the 3 breeds used were known and were considered when judging the normality of the BP measurements taken during the study. […]

healthy adult dogs [4] = test: Glycyrrhizin safety study: plasma aldosterone concentration; assay type: in vivo, dog; conditions: adult dogs, 0.2, 0.4 and 0.6 mg/kg Bwt/day, 28 days each
Source text: as §1, §2
Commercially available pharmaceutical grade gelatin capsules (Capsuline, Dania Beach, Florida, US) were filled to capacity with precisely weight mixtures of licorice powder and 100% pure maltodextrin powder (Bulk Powders, Colchester, UK). […]
Dosage. The doses to be administered to each dog were calculated based on five different bodyweight groups. […]
Small volume blood samples (4 ml) were taken on the days indicated in the protocol description above in order to determine blood potassium, sodium and calcium, creatinine and aldosterone concentration. […] Urinary creatinine concentrations were also measured so that Fractional Excretion Rate (FER) for sodium, potassium and calcium could be calculated. […]

[5] = 0.2 mg Gly/kg Bwt/day oral, Day 0
[6] = 0.2 mg Gly/kg Bwt/day oral, Day 2
[7] = 0.2 mg Gly/kg Bwt/day oral, Day 4
[8] = 0.2 mg Gly/kg Bwt/day oral, Day 7
[9] = 0.2 mg Gly/kg Bwt/day oral, Day 14
[10] = 0.2 mg Gly/kg Bwt/day oral, Day 21
[11] = 0.2 mg Gly/kg Bwt/day oral, Day 28
[12] = 0.4 mg Gly/kg Bwt/day oral, Day 0
[13] = 0.4 mg Gly/kg Bwt/day oral, Day 2
[14] = 0.4 mg Gly/kg Bwt/day oral, Day 4
[15] = 0.4 mg Gly/kg Bwt/day oral, Day 7
[16] = 0.4 mg Gly/kg Bwt/day oral, Day 14
[17] = 0.4 mg Gly/kg Bwt/day oral, Day 21
[18] = 0.4 mg Gly/kg Bwt/day oral, Day 28
[19] = 0.6 mg Gly/kg Bwt/day oral, Day 0
[20] = 0.6 mg Gly/kg Bwt/day oral, Day 2
[21] = 0.6 mg Gly/kg Bwt/day oral, Day 4
[22] = 0.6 mg Gly/kg Bwt/day oral, Day 7
[23] = 0.6 mg Gly/kg Bwt/day oral, Day 14
[24] = 0.6 mg Gly/kg Bwt/day oral, Day 21
[25] = 0.6 mg Gly/kg Bwt/day oral, Day 28

Structure (SMILES): CC1(C)[C@@H](O[C@H]2O[C@H](C(=O)O)[C@@H](O)[C@H](O)[C@H]2O[C@@H]2O[C@H](C(=O)O)[C@@H](O)[C@H](O)[C@H]2O)CC[C@]2(C)[C@H]3C(=O)C=C4[C@@H]5C[C@@](C)(C(=O)O)CC[C@]5(C)CC[C@@]4(C)[C@]3(C)CC[C@@H]12 [Gly, glycyrrhizin]
- Presumed Safe Intake (PSI) [1]: 1 mg/kg of complete feed
- Presumed Safe Intake (PSI), estimated amount per bodyweight [1]: ~0.02 mg/kg of bodyweight (Bwt) per day
- Presumed Safe Intake (PSI), estimated daily amount [1]: ~0.3 mg/day
- effect on fractional potassium excretion, D0 versus any later time point (healthy adult dogs [2]): no significant difference
- effect on fractional potassium excretion, D0 versus any later time point (healthy adult dogs [2]; listed as Glycyrrhizin): no significant impact
- overall mean fractional potassium excretion (healthy adult dogs [2]; [5]): 16.54%
- overall mean fractional potassium excretion (healthy adult dogs [2]; [6]): 15.74%
- overall mean fractional potassium excretion (healthy adult dogs [2]; [7]): 15.59%
- overall mean fractional potassium excretion (healthy adult dogs [2]; [8]): 15.06%
- overall mean fractional potassium excretion (healthy adult dogs [2]; [9]): 13.33%
- overall mean fractional potassium excretion (healthy adult dogs [2]; [10]): 20.02%
- overall mean fractional potassium excretion (healthy adult dogs [2]; [11]): 16.54%
- overall mean fractional potassium excretion (healthy adult dogs [2]; [12]): 16.02%
- overall mean fractional potassium excretion (healthy adult dogs [2]; [13]): 15.56%
- overall mean fractional potassium excretion (healthy adult dogs [2]; [14]): 16.02%
- overall mean fractional potassium excretion (healthy adult dogs [2]; [15]): 15.72%
- overall mean fractional potassium excretion (healthy adult dogs [2]; [16]): 16.87%
- overall mean fractional potassium excretion (healthy adult dogs [2]; [17]): 16.09%
- overall mean fractional potassium excretion (healthy adult dogs [2]; [18]): 16.27%
- overall mean fractional potassium excretion (healthy adult dogs [2]; [19]): 16.48%
- overall mean fractional potassium excretion (healthy adult dogs [2]; [20]): 18.08%
- overall mean fractional potassium excretion (healthy adult dogs [2]; [21]): 17.48%
- overall mean fractional potassium excretion (healthy adult dogs [2]; [22]): 13.15%
- overall mean fractional potassium excretion (healthy adult dogs [2]; [23]): 15.64%
- overall mean fractional potassium excretion (healthy adult dogs [2]; [24]): 14.93%
- overall mean fractional potassium excretion (healthy adult dogs [2]; [25]): 16.48%
- effect on blood pressure, D0 versus any later time point (healthy adult dogs [3]): no significant difference
- effect on blood pressure, D0 versus any later time point (healthy adult dogs [3]; listed as Glycyrrhizin): no significant impact
- overall mean systolic blood pressure (healthy adult dogs [3]; [5]): 120 mmHg
- overall mean systolic blood pressure (healthy adult dogs [3]; [6]): 127 mmHg
- overall mean systolic blood pressure (healthy adult dogs [3]; [7]): 125 mmHg
- overall mean systolic blood pressure (healthy adult dogs [3]; [8]): 126 mmHg
- overall mean systolic blood pressure (healthy adult dogs [3]; [9]): 126 mmHg
- overall mean systolic blood pressure (healthy adult dogs [3]; [10]): 122 mmHg
- overall mean systolic blood pressure (healthy adult dogs [3]; [11]): 121 mmHg
- overall mean systolic blood pressure (healthy adult dogs [3]; [12]): 118 mmHg
- overall mean systolic blood pressure (healthy adult dogs [3]; [13]): 117 mmHg
- overall mean systolic blood pressure (healthy adult dogs [3]; [14]): 119 mmHg
- overall mean systolic blood pressure (healthy adult dogs [3]; [15]): 125 mmHg
- overall mean systolic blood pressure (healthy adult dogs [3]; [16]): 122 mmHg
- overall mean systolic blood pressure (healthy adult dogs [3]; [17]): 120 mmHg
- overall mean systolic blood pressure (healthy adult dogs [3]; [18]): 124 mmHg
- overall mean systolic blood pressure (healthy adult dogs [3]; [19]): 125 mmHg
- overall mean systolic blood pressure (healthy adult dogs [3]; [20]): 119 mmHg
- overall mean systolic blood pressure (healthy adult dogs [3]; [21]): 123 mmHg
- overall mean systolic blood pressure (healthy adult dogs [3]; [22]): 125 mmHg
- overall mean systolic blood pressure (healthy adult dogs [3]; [23]): 123 mmHg
- overall mean systolic blood pressure (healthy adult dogs [3]; [24]): 124 mmHg
- overall mean systolic blood pressure (healthy adult dogs [3]; [25]): 122 mmHg
- effect on plasma aldosterone concentration, D0 versus any later time point (healthy adult dogs [4]): no significant difference
- effect on plasma aldosterone concentration, D0 versus any later time point (healthy adult dogs [4]; listed as Glycyrrhizin): no significant impact
